Measurements: patent US9738634B2, “Heterocyclic amide compound and herbicide” (SYNGENTA PARTICIPATIONS AG, priority 2013, dated 2017)

Legend:
Assay type in all cases: in vivo
[1] = tested on: transplanted rice; experiment: Test Example 1: preemergent weed treatment in the submerged state, effect on crop; a: transplanted rice
Source text: (§1) Weedkilling efficacy test on preemergent weed treatment in the submerged state
(§2) Alluvial soil was introduced into 1/10,000 Are Wagner pots, and 4 cm depth submerged conditions were created by addition of water and mixing. Seeds of barnyard grass, bulrush and oval-leafed pondweed were mixed and sown into the aforesaid cups, then 2.5 leaf stage rice seedlings were transplanted. On the sowing day, emulsions of compounds of the present invention prepared according to compounding example 2 were diluted with water to give the specified dosages and applied onto the water surface. The plants were grown after placing the cups in a greenhouse at 25 to 30° C. 3 weeks after the pesticide treatment the effect on each type of plant was investigated on the basis of the following assessment criteria.
(§3) A: barnyard grass, B: bulrush, C: oval-leafed pondweed, D: crabgrass, E: green foxtail, F: barnyard grass, G: wild oat, H: black-grass, I: Italian ryegrass, J: common wind-grass, K: Indian mallow, L: redroot pigweed, M: fig-leafed goosefoot, N: chickweed, O: catchweed, p: birds-eye speedwell, a: transplanted rice, b: directly sown rice, c: corn, d: soybean, e: wheat, f: beet, g: rapeseed
(§4) Further, pesticide dosage (g/ha) indicates the concentration regulated such that treatment was with only the stated number of grams (g), when calculated per hectare (ha).

[2] = tested on: barnyard grass; experiment: Test Example 2: weedkilling efficacy, growth period weed treatment in the submerged state; A: barnyard grass
Protocol: (§5) Weedkilling efficacy test on growth period weed treatment in the submerged state
as §2, with “and the plants were grown by placing in a greenhouse at 25 to 30° C. When the barnyard grass, bulrush and oval-leafed pondweed had reached the 1-2” for “then 2.5”, “stage,” for “stage rice seedlings were transplanted. On the sowing day,”, “surface.” for “surface. The plants were grown after placing the cups in a greenhouse at 25 to 30° C.”, “the” for “the following”, “criteria of test example 1.” for “criteria.”
as §3, §4

[3] = tested on: bulrush; experiment: Test Example 2: weedkilling efficacy, growth period weed treatment in the submerged state; B: bulrush
Protocol: as §5
as §2, with “and the plants were grown by placing in a greenhouse at 25 to 30° C. When the barnyard grass, bulrush and oval-leafed pondweed had reached the 1-2” for “then 2.5”, “stage,” for “stage rice seedlings were transplanted. On the sowing day,”, “surface.” for “surface. The plants were grown after placing the cups in a greenhouse at 25 to 30° C.”, “the” for “the following”, “criteria of test example 1.” for “criteria.”
as §3, §4

[4] = tested on: bulrush; experiment: Test Example 1: weedkilling efficacy, preemergent weed treatment in the submerged state; B: bulrush
Source text: as §1, §2, §3, §4

[5] = tested on: barnyard grass; experiment: Test Example 1: weedkilling efficacy, preemergent weed treatment in the submerged state; A: barnyard grass
Source text: as §1, §2, §3, §4

[6] = tested on: oval-leafed pondweed; experiment: Test Example 2: weedkilling efficacy, growth period weed treatment in the submerged state; C: oval-leafed pondweed
Protocol: as §5
as §2, with “and the plants were grown by placing in a greenhouse at 25 to 30° C. When the barnyard grass, bulrush and oval-leafed pondweed had reached the 1-2” for “then 2.5”, “stage,” for “stage rice seedlings were transplanted. On the sowing day,”, “surface.” for “surface. The plants were grown after placing the cups in a greenhouse at 25 to 30° C.”, “the” for “the following”, “criteria of test example 1.” for “criteria.”
as §3, §4

[7] = tested on: oval-leafed pondweed; experiment: Test Example 1: weedkilling efficacy, preemergent weed treatment in the submerged state; C: oval-leafed pondweed
Source text: as §1, §2, §3, §4

Structure (SMILES): CC(C(=O)Nc1cc(Cl)cc(Cl)n1)N1COCN(c2ccccc2)C1=O (racemic) [A-7-01]
- a: transplanted rice, effect on crop grade ([1]; treatment dosage 1000 g/ha): 0 (weed kill ratio 5% or less (practically no effect))
- A (barnyard grass) weedkilling efficacy grade ([2]; treatment dosage 1000 g/ha): 3 (weed kill ratio 40% or more, less than 70%)
- B (bulrush) weedkilling efficacy grade ([3]; treatment dosage 1000 g/ha): 5 (weed kill ratio 90% or more, (practically complete withering))
- B: bulrush, weed kill grade ([4]; treatment dosage 1000 g/ha): 5 (weed kill ratio 90% or more, (practically complete withering))
- A: barnyard grass, weed kill grade ([5]; treatment dosage 1000 g/ha): 5 (weed kill ratio 90% or more, (practically complete withering))
- C (oval-leafed pondweed) weedkilling efficacy grade ([6]; treatment dosage 1000 g/ha): 1 (weed kill ratio 5% or more, less than 20%)
- C: oval-leafed pondweed, weed kill grade ([7]; treatment dosage 1000 g/ha): 4 (weed kill ratio 70% or more, less than 90%)

Structure (SMILES): Cn1ccc(NC(=O)C(C)(C)N2COCN(c3ccccc3)C2=O)n1 [A-1-03]
- a: transplanted rice, effect on crop grade ([1]; treatment dosage 320 g/ha): 0 (weed kill ratio 5% or less (practically no effect))
- A (barnyard grass) weedkilling efficacy grade ([2]; treatment dosage 320 g/ha): 0 (weed kill ratio 5% or less (practically no effect))
- B (bulrush) weedkilling efficacy grade ([3]; treatment dosage 320 g/ha): 2 (weed kill ratio 20% or more, less than 40%)
- B: bulrush, weed kill grade ([4]; treatment dosage 320 g/ha): 5 (weed kill ratio 90% or more, (practically complete withering))
- A: barnyard grass, weed kill grade ([5]; treatment dosage 320 g/ha): 0 (weed kill ratio 5% or less (practically no effect))
- C (oval-leafed pondweed) weedkilling efficacy grade ([6]; treatment dosage 320 g/ha): 0 (weed kill ratio 5% or less (practically no effect))
- C: oval-leafed pondweed, weed kill grade ([7]; treatment dosage 320 g/ha): 2 (weed kill ratio 20% or more, less than 40%)

Structure (SMILES): CC(C)(C(=O)Nc1ncc([N+](=O)[O-])s1)N1COCN(c2ccccc2)C1=O [A-1-09]
- a: transplanted rice, effect on crop grade ([1]; treatment dosage 320 g/ha): 0 (weed kill ratio 5% or less (practically no effect))
- A (barnyard grass) weedkilling efficacy grade ([2]; treatment dosage 320 g/ha): 4 (weed kill ratio 70% or more, less than 90%)
- B (bulrush) weedkilling efficacy grade ([3]; treatment dosage 320 g/ha): 5 (weed kill ratio 90% or more, (practically complete withering))
- B: bulrush, weed kill grade ([4]; treatment dosage 320 g/ha): 5 (weed kill ratio 90% or more, (practically complete withering))
- A: barnyard grass, weed kill grade ([5]; treatment dosage 320 g/ha): 5 (weed kill ratio 90% or more, (practically complete withering))
- C (oval-leafed pondweed) weedkilling efficacy grade ([6]; treatment dosage 320 g/ha): 5 (weed kill ratio 90% or more, (practically complete withering))
- C: oval-leafed pondweed, weed kill grade ([7]; treatment dosage 320 g/ha): 4 (weed kill ratio 70% or more, less than 90%)

Structure (SMILES): CC(C)(C(=O)Nc1nnc(C(F)(F)F)s1)N1COCN(c2ccccc2)C1=O [A-1-14]
- a: transplanted rice, effect on crop grade ([1]; treatment dosage 320 g/ha): 1 (weed kill ratio 5% or more, less than 20%)
- A (barnyard grass) weedkilling efficacy grade ([2]; treatment dosage 320 g/ha): 2 (weed kill ratio 20% or more, less than 40%)
- B (bulrush) weedkilling efficacy grade ([3]; treatment dosage 320 g/ha): 5 (weed kill ratio 90% or more, (practically complete withering))
- B: bulrush, weed kill grade ([4]; treatment dosage 320 g/ha): 5 (weed kill ratio 90% or more, (practically complete withering))
- A: barnyard grass, weed kill grade ([5]; treatment dosage 320 g/ha): 4 (weed kill ratio 70% or more, less than 90%)
- C (oval-leafed pondweed) weedkilling efficacy grade ([6]; treatment dosage 320 g/ha): 2 (weed kill ratio 20% or more, less than 40%)
- C: oval-leafed pondweed, weed kill grade ([7]; treatment dosage 320 g/ha): 3 (weed kill ratio 40% or more, less than 70%)

Structure (SMILES): CSc1nc(NC(=O)C(C)(C)N2COCN(c3ccccc3)C2=O)ns1 [A-1-17]
- a: transplanted rice, effect on crop grade ([1]; treatment dosage 320 g/ha): 0 (weed kill ratio 5% or less (practically no effect))
- A (barnyard grass) weedkilling efficacy grade ([2]; treatment dosage 320 g/ha): 0 (weed kill ratio 5% or less (practically no effect))
- B (bulrush) weedkilling efficacy grade ([3]; treatment dosage 320 g/ha): 4 (weed kill ratio 70% or more, less than 90%)
- B: bulrush, weed kill grade ([4]; treatment dosage 320 g/ha): 5 (weed kill ratio 90% or more, (practically complete withering))
- A: barnyard grass, weed kill grade ([5]; treatment dosage 320 g/ha): 2 (weed kill ratio 20% or more, less than 40%)
- C (oval-leafed pondweed) weedkilling efficacy grade ([6]; treatment dosage 320 g/ha): 2 (weed kill ratio 20% or more, less than 40%)
- C: oval-leafed pondweed, weed kill grade ([7]; treatment dosage 320 g/ha): 3 (weed kill ratio 40% or more, less than 70%)

Structure (SMILES): CC(C)(C(=O)Nc1nc(Cl)ccc1Cl)N1COCN(c2ccccc2)C1=O [A-2-16]
- a: transplanted rice, effect on crop grade ([1]; treatment dosage 252 g/ha): 0 (weed kill ratio 5% or less (practically no effect))
- B: bulrush, weed kill grade ([4]; treatment dosage 252 g/ha): 5 (weed kill ratio 90% or more, (practically complete withering))
- A: barnyard grass, weed kill grade ([5]; treatment dosage 252 g/ha): 0 (weed kill ratio 5% or less (practically no effect))
- C: oval-leafed pondweed, weed kill grade ([7]; treatment dosage 252 g/ha): 2 (weed kill ratio 20% or more, less than 40%)

Structure (SMILES): COC(=O)c1ccnc(NC(=O)C(C)(C)N2COCN(c3ccccc3)C2=O)c1 [A-2-47]
- a: transplanted rice, effect on crop grade ([1]; treatment dosage 320 g/ha): 0 (weed kill ratio 5% or less (practically no effect))
- B: bulrush, weed kill grade ([4]; treatment dosage 320 g/ha): 4 (weed kill ratio 70% or more, less than 90%)
- A: barnyard grass, weed kill grade ([5]; treatment dosage 320 g/ha): 2 (weed kill ratio 20% or more, less than 40%)
- C: oval-leafed pondweed, weed kill grade ([7]; treatment dosage 320 g/ha): 0 (weed kill ratio 5% or less (practically no effect))

Structure (SMILES): COc1ccnc(NC(=O)C(C)(C)N2COCN(c3ccccc3)C2=O)c1 [A-2-51]
- a: transplanted rice, effect on crop grade ([1]; treatment dosage 252 g/ha): 0 (weed kill ratio 5% or less (practically no effect))
- B: bulrush, weed kill grade ([4]; treatment dosage 252 g/ha): 5 (weed kill ratio 90% or more, (practically complete withering))
- A: barnyard grass, weed kill grade ([5]; treatment dosage 252 g/ha): 4 (weed kill ratio 70% or more, less than 90%)
- C: oval-leafed pondweed, weed kill grade ([7]; treatment dosage 252 g/ha): 2 (weed kill ratio 20% or more, less than 40%)

Structure (SMILES): COc1cc(C(F)(F)F)cc(NC(=O)C(C)(C)N2COCN(c3ccccc3)C2=O)n1 [A-2-59]
- a: transplanted rice, effect on crop grade ([1]; treatment dosage 320 g/ha): 1 (weed kill ratio 5% or more, less than 20%)
- B: bulrush, weed kill grade ([4]; treatment dosage 320 g/ha): 5 (weed kill ratio 90% or more, (practically complete withering))
- A: barnyard grass, weed kill grade ([5]; treatment dosage 320 g/ha): 5 (weed kill ratio 90% or more, (practically complete withering))
- C: oval-leafed pondweed, weed kill grade ([7]; treatment dosage 320 g/ha): 5 (weed kill ratio 90% or more, (practically complete withering))

Structure (SMILES): Cc1cnc(Cl)c(NC(=O)C(C)(C)N2COCN(c3ccccc3)C2=O)c1 [A-3-09]
- a: transplanted rice, effect on crop grade ([1]; treatment dosage 252 g/ha): 1 (weed kill ratio 5% or more, less than 20%)
- B: bulrush, weed kill grade ([4]; treatment dosage 252 g/ha): 4 (weed kill ratio 70% or more, less than 90%)
- A: barnyard grass, weed kill grade ([5]; treatment dosage 252 g/ha): 2 (weed kill ratio 20% or more, less than 40%)
- C: oval-leafed pondweed, weed kill grade ([7]; treatment dosage 252 g/ha): 0 (weed kill ratio 5% or less (practically no effect))

Structure (SMILES): COc1ccc(N2COCN(C(C)(C)C(=O)Nc3cc(C(F)(F)F)ccn3)C2=O)cc1Cl [A-6-05]
- a: transplanted rice, effect on crop grade ([1]; treatment dosage 320 g/ha): 0 (weed kill ratio 5% or less (practically no effect))
- B: bulrush, weed kill grade ([4]; treatment dosage 320 g/ha): 2 (weed kill ratio 20% or more, less than 40%)
- A: barnyard grass, weed kill grade ([5]; treatment dosage 320 g/ha): 2 (weed kill ratio 20% or more, less than 40%)
- C: oval-leafed pondweed, weed kill grade ([7]; treatment dosage 320 g/ha): 2 (weed kill ratio 20% or more, less than 40%)

Structure (SMILES): Cc1ccc(N2COCN(C(C)(C)C(=O)Nc3cc(C(F)(F)F)ccn3)C2=O)cc1 [A-6-09]
- a: transplanted rice, effect on crop grade ([1]; treatment dosage 320 g/ha): 0 (weed kill ratio 5% or less (practically no effect))
- A (barnyard grass) weedkilling efficacy grade ([2]; treatment dosage 320 g/ha): 3 (weed kill ratio 40% or more, less than 70%)
- B (bulrush) weedkilling efficacy grade ([3]; treatment dosage 320 g/ha): 3 (weed kill ratio 40% or more, less than 70%)
- B: bulrush, weed kill grade ([4]; treatment dosage 320 g/ha): 5 (weed kill ratio 90% or more, (practically complete withering))
- A: barnyard grass, weed kill grade ([5]; treatment dosage 320 g/ha): 4 (weed kill ratio 70% or more, less than 90%)
- C: oval-leafed pondweed, weed kill grade ([7]; treatment dosage 320 g/ha): 4 (weed kill ratio 70% or more, less than 90%)

Structure (SMILES): CC1=C(c2ccnc(F)c2)C(=O)N(C(C)(C)C(=O)Nc2cccc(Cl)n2)CO1 [B-2-21]
- a (transplanted rice) effect on crop grade ([1]; treatment dosage 252 g/ha): 0 (weed kill ratio 5% or less (practically no effect))
- B (bulrush) weedkilling efficacy grade ([4]; treatment dosage 252 g/ha): 5 (weed kill ratio 90% or more, (practically complete withering))
- A (barnyard grass) weedkilling efficacy grade ([5]; treatment dosage 252 g/ha): 0 (weed kill ratio 5% or less (practically no effect))
- C (oval-leafed pondweed) weedkilling efficacy grade ([7]; treatment dosage 252 g/ha): 3 (weed kill ratio 40% or more, less than 70%)

Structure (SMILES): CC1=C(c2cncnc2)C(=O)N(C(C)(C)C(=O)Nc2cccc(Cl)n2)CO1 [B-2-22]
- a (transplanted rice) effect on crop grade ([1]; treatment dosage 1000 g/ha): 0 (weed kill ratio 5% or less (practically no effect))
- B (bulrush) weedkilling efficacy grade ([4]; treatment dosage 1000 g/ha): 3 (weed kill ratio 40% or more, less than 70%)
- A (barnyard grass) weedkilling efficacy grade ([5]; treatment dosage 1000 g/ha): 3 (weed kill ratio 40% or more, less than 70%)
- C (oval-leafed pondweed) weedkilling efficacy grade ([7]; treatment dosage 1000 g/ha): 1 (weed kill ratio 5% or more, less than 20%)
